In patent US20250066310A1, “MULTI-SUBSTITUTED URACIL DERIVATIVE AND PREPARATION METHOD THEREFOR AND APPLICATION THEREOF” (HANGZHOU ADAMERCK PHARMLABS INC., priority 2021, published 2025):

Assays:
[1] = test system: rats with autologous thrombus and thrombin-induced cerebral ischemic injury; assay: Ischemic brain injury induced by autologous thrombus and thrombin in rats (i.v., alone or with urokinase); assay type: in vivo, SD rats; conditions: n = 10
Protocol: Experimental Methods: A model of cerebral ischemic injury in SD rats was prepared by embolizing the middle cerebral artery of rats with autologous thrombus and thrombin via the external carotid artery to the internal carotid artery and the rats were randomly divided into 5 groups according to behavioral scores, a sham group (only the external carotid artery was isolated); a model-control group (saline was given to both groups in equal volume); urokinase (5000 U/kg) group; compound 1-1 ([…]) group; with 20 animals in each group (10 for detecting the rate of cerebral infarction, and the other 10 for pathological testing). Each group was administered slowly in the tail vein (1 ml per minute) 2 h after modeling, and the decrease in blood flow was monitored after thrombin injection and 120 min after administration. Neurobehavioral scoring was performed on the rats after 24 h to determine the neurological function of the rats; 2,3,5-triphenyltetrazolium chloride (TTC) staining was used to determine the rate of cerebral infarction and cerebral water content, and hematoxylin-eosin (HE) staining was used to observe the pathological damage of the brain in rats administered with the drug 2 h after cerebral ischemia.

[2] = test system: rats with focal permanent cerebral ischemia (MCAO); assay: Focal permanent cerebral ischemic injury (MCAO), administration from 3 h post-ischemia; assay type: in vivo, SD rats; conditions: for Number of survivors after 15 days animal: 15 enrolled; for Mortality (%): 15-day; for Neurological function score on day 15: Bederson's method; for Weight on day 1 / Weight on day 5 / Weight on day 15: mean body weight
[3] = middle and high dose groups compared with the model group

CCOC(=O)CCNC(=O)CCNc1cc(=O)n(C)c(=O)n1C [Compound 1-1]
Cerebral infarction rate ([1]; 9 mg/kg i.v., TTC staining, mean ± S.D.): 14.99 ± 10.91 | behavioral score ([1]; 9 mg/kg i.v., after 24 h, Mean ± SD): 1.70 ± 0.82 | cerebral water content (%) ([1]; 9 mg/kg i.v., mean ± S.D.): 80.32 ± 0.97 % | Percentage decrease two hours after administration (%) ([1]; cerebral blood flow, 9 mg/kg i.v. 2 h after modeling, Mean ± SD): 29.24 ± 2.67 % | Percentage decrease after thrombin injection (%) ([1]; cerebral blood flow, before administration, 9 mg/kg group, Mean ± SD): 39.18 ± 4.75% | Pathology Score ([1]; cerebral ischemic areas, 9 mg/kg i.v., mean ± SD): 2.20 ± 1.01 | Number of survivors after 15 days animal ([2]; 10 mg/kg by gavage once a day): 8 | Number of survivors after 15 days animal ([2]; 20 mg/kg by gavage once a day): 11 | Number of survivors after 15 days animal ([2]; 40 mg/kg by gavage once a day): 10 | Mortality (%) ([2]; 10 mg/kg by gavage): 46.67% | Mortality (%) ([2]; 20 mg/kg by gavage): 26.67% | Mortality (%) ([2]; 40 mg/kg by gavage): 33.33% | Neurological function score on day 15 ([2]; 10 mg/kg): 0.88 | Neurological function score on day 15 ([2]; 20 mg/kg): 0.75 | Neurological function score on day 15 ([2]; 40 mg/kg): 0.5 | Weight on day 1 ([2]; 10 mg/kg): 273.73 g | Weight on day 5 ([2]; 10 mg/kg): 240.73 g | Weight on day 15 ([2]; 10 mg/kg): 281.38 g | Weight on day 1 ([2]; 20 mg/kg): 281.93 g | Weight on day 5 ([2]; 20 mg/kg): 253.67 g | Weight on day 15 ([2]; 20 mg/kg): 281.10 g | Weight on day 1 ([2]; 40 mg/kg): 274.93 g | Weight on day 5 ([2]; 40 mg/kg): 288.25 g | Weight on day 15 ([2]; 40 mg/kg): 316.80 g | infarction rate (TTC staining) [2, 3]: significantly reduced | water content [2, 3]: significantly reduced
